Measurements published in patent US20040166559A1, “Vectors for gene therapy” (priority 2001, published 2004).
Converted amounts (≈) assume the structure as drawn. Read-outs that look alike come from different tables or passages of the source.

Columns and labels:
[1] = tested on: primary T-cells; experiment: GCV sensitivity of G1Tk1SvNa transduced primary T-cells following G418 selection; assay type: cell-based, human; settings: n=12
Procedure: Transduction of donor T-cells with the G1Tk1SvNa retroviral vector was as previously described (Robinet et al (1998) J. Hematother. 7, 205-215). PBMNC were cultured for 3 days with OKT3 (10 ng, Ortho) and rhIL-2 (500 U/mL, Chiron). Infection with retroviral supernatant for 24 hours was followed by G418 (800 μg/mL, Sigma) selection of transduced cells for 7 days. Dead cells were removed and the viable transduced product was cryopreserved for future use. The transduction of CEM cells with the G1Tk1SvNa vector involved identical infection conditions to those described for the SFCMM3 vector, followed by selection in G418 (800 μg/ml) for 7-14 days.
The transduction efficiency of primary T-cells with G1Tk1SvNa prior to G418 selection, as measured by quantitative PCR for Neo^R, was 8.3±1.4% (n=12). The GCV sensitivity of these cells following G418 selection was 87±1.2% (n=12). The relative cell growth of control and transduced cells from one representative transduction/selection experiment is shown in FIG. 16.

[2] = tested on: transduced donor cells; settings: one patient with chronic GvHD; declined from 11.9%; cited from earlier work
[3] = tested on: TK-CEM sub-clones; experiment: Ganciclovir cytotoxic assay (3H-thymidine incorporation); assay type: cell-based, human; settings: for IC50: Homo sapiens
Procedure: Cells were incubated for 4 days in the presence of increasing concentration of GCV (range from 0.05 to 12.5 μg/mL). Cell proliferation was measured by the incorporation of ^3H— thymidine into the cell DNA. Results are expressed as percentage of incorporated ^3H-thymidine at each GCV concentration respect to the incorporation obtained in the absence of GCV. (♦) non-transduced CEM cells and (▪) SFCMM 3 transduced TK-CEM sub-clones.
Ganciclovir Cytotoxic Assay
A total of 2×10^4 cells/well were seeded into a 96-well plate in 100 μL of medium. Cells were cultured for 4 days with increasing concentrations (from 0.05 to 12.5 μg/mL) of GCV (Cymevene®, Hoffman-La Roche A G, Germany). Afterwards, 1 μCi/well of tritiated thymidine (methyl ^3H-thymidine, TRA.120, 1.0 MBq/mL, Amersham International, England) was added 18 h. before harvesting the cell DNA in a cell harvester (Wallac, Gaitherburg, Md.). The incorporation of ^3H-thymidine into the DNA was measured in a β-scintillation counter (Wallac 1410, aitherburg, Md.). All GCV concentrations were tested in triplicate esults are expressed as percentage of incorporated ^3H-thymidine at each GCV concentration with respect to the incorporation obtained in the absence of GCV.
The expression of the HSV-TK transgene m the TK-CEM sub-clones was determined by the inhibition in cell proliferation when the cells were cultured at increasing concentrations of GCV.

[4] = tested on: T cell lines and primary T cells; experiment: GCV sensitivity of T cell lines and primary T cells transduced with corrected or non-corrected HSV-Tk vectors; assay type: cell-based, human; settings: inhibition of cell viability
Source text: FIG. 18. GCV sensitivity of T cell lines and primary T cells transduced with corrected or non-corrected HSV-Tk vectors. GCV sensitivity of Hut-78 (A) and CEM (B) cell line transduced with corrected SF/Tk/mut (?) or non-corrected vector G1Tk1SVNa (◯) or SF/Tk/wt (Δ) compared to untransduced T-cell lines (▪). The data represents the inhibition of cell viability and are the mean±SD of 8 and 3 different independent experiments, for CEM and Hut-78 cell lines respectively. (C) GCV sensitivity of primary T cells transduced with corrected sc-SFCMM3 (Δ) or non corrected SFCMM3 vectors (?) compared to untransduced T cells (▪).
Primary T cells and the T cell lines, HuT78 (ATCC TIB-161) and CEM (ATCC CRL 2265)] were transduced with G1Tk1SVNa, SF/Tk/wt, SF/Tk/mut, SFCMM3 or scSFCMM3 vectors. HSV-Tk PCR (as described in^7) was performed on transduced target cells. In addition, PCR was performed using primers which selectively amplified the deleted form of the HSV-Tk gene using a 5′ primer, which spans the truncation point [TrTk1: 5′CTCGACCAGG§GCCGTGCT. (§ denoting the junction) and the previously described RTk2 3′ primer^7. Splicing from the transduced cell lines was quantified as described.^7

[5] = tested on: circulating transduced T-cells; experiment: Clinical study: transduced donor T-cells with T cell depleted bone marrow, GCV treatment of GvHD; assay type: in vivo, human
Source text: Escalating amounts of CD3^+ gene-modified cells were infused with T cell depleted bone marrow. Twelve patients with hematological malignancies received 2×10^5 (n=5), 6×10^5 (n=5) or 20×10^5 (n=2) transduced donor CD3^+ cells/kg with bone marrow from an HLA-identical sibling. Acute toxicity was not observed. […] Three patients developed acute GvHD grade≧II while 1 patient developed chronic GvHD (skin and salivary glands). […] In patients receiving GCV, blood samples for detection of gene-modified cells expressing the wild-type or truncated form of the HSV-Tk gene were harvested prior to GCV treatment and a regular two weeks intervals.

[6] = patients, GCV treatment for GvHD, quantitative PCR of the NeoR gene

Nc1nc(O)c2ncn(COC(CO)CO)c2n1 [GCV]
GCV sensitivity [1]: 87±1.2%
proportion of transduced donor cells after administration of GCV [2]: 2.8%
IC50 ([3]; 96 h, TK-CEM clones #6 and #10, 4 days with GCV, read-out: concentration of GCV to achieve the 50% inhibition in cell proliferation): 0.25 µg/mL (≈ 0.979 µM)
IC50 ([3]; read-out: IC50 inhibition in cell proliferation assessed by the incorporation of 3H-thymidine): 0.1 µg/mL (≈ 0.392 µM)
cell proliferation at increasing concentrations of GCV ([3]; TK-CEM clones #1, #2, #4, #5, #7 and #14): parallel to that obtained in the non-transduced cells
complete inhibition in cell proliferation ([3]; TK-CEM clones #6 and #10, GCV increased up to 12.5 μg/mL): not completely achieved
GCV sensitivity of cells expressing the mutated HSV-Tk gene compared to populations transduced by wild-type gene [4]: only marginally increased
change in circulating transduced T-cells ([5]; patients receiving ganciclovir): significant rapid decrease
reduction of absolute number of circulating transduced T-cells [5, 6]: 76-99.5%
reduction of percentage of circulating transduced T-cells [5, 6]: 85-98%
outcome of chronic GvHD ([5]; the patient with chronic GvHD (skin and salivary glands)): Long-lasting CR
outcome of acute GvHD ([5]; treatment with GCV alone, three patients had acute GvHD grade ≧II): complete remission (CR) in 2 patients
